The record followed here is patent publication US20200270216A1, “COMPOSITIONS AND METHODS FOR INHIBITING N-SMASE2” (The Regents of the University of California, priority 2017, published 2020).

Entries after “also recorded” stand apart in the source; their conditions may differ.

Test [1] concerns HEK293T Tau RD P301S FRET biosensor cells. The test can be described thus: D+R functional assay: tau seed transfer from P2-seeded donor cells to DiD-labeled recipient cells. Format: cell-based. The procedure: The compounds disclosed herein were further evaluated in the functional assays (“D+R approach”). The assays were based on the use of two cell populations—donor cells (D) and recipient cells (R). Recipients express a specific signal upon accumulation of protein aggregates (for example, FRET signal). The D+R approach can be divided into four steps (FIG. 4A).
In step 1, donor and recipient cells were plated in separation and protein aggregation is induced in the donor cells by using tissue-derived or synthetic proteopathic seeds (“seeding”) or by chemical and/or genetic methods. In step 2, either donor cells or recipient cells were labeled with a lipophilic dye (or by other cell labeling technology) in order to be able to distinguish between donor and recipients cells after trypsinization and re-plating of the donor and recipient cells together in step 3 (R+D). Alternatively, donor and recipient cells were physically divided by a permeable support (for example, Transwell). In any scenario, the cells were connected through the media and they grow for 24-60 hours with or without addition of pre-selected compounds. Efficiency of proteopathic seed transmission from donor cells to recipient cells can be analyzed using microscopy, flow cytometry, or imaging flow cytometry. […] Treatment of the tau biosensor cells with tau seeds lead to RD aggregation, as a result, CFP and YFP molecules come into close proximity and a FRET signal can be generated in the CFP/YFP pair upon illumination. The far-red fluorescent, lipophilic carbocyanine dye, DiD, was used for labeling recipient cells. This dye allowed for distinguishing between the DiD-negative donor and the DiD positive recipient cells without interference with the CFP/YFP FRET signal. The representative images of DiD-negative FRETpositive donor cell seeded with P2-derived tau seeds), DiD-positive FRET-negative recipient cell (DiD-R), and DiD positive FRET-positive recipient cell, which were growing in the presence of P2-D (DiD-R/R+D) are presented at the FIG. 4B. […]

For test [2] the test system is unchanged. The test can be described thus: EV-mediated tau transfer assay. Format: cell-based. How it is done:
For EV (extracellular vesicles)-mediated tau transfer assay, donor cells, transduced with AD-brain derived synaptosomal extracts (P2) or synthetic K18 seeds, were cultured for 48 hours in exosome-free medium with or without indicated concentration of tested compounds or DMSO for control, then medium was collected and EVs were purified using Exo-Quick-TC exosome purification kit (SBI, EXOTC10A-1) according to the manufacturing instructions. Naive recipient cells were plated at density 30,000 cells per well (96-well plates), grown for 12 hour in regular medium and then medium was exchanged to exosome-depleted medium, contained exosomes purified from donor cells (each well of recipients received amount of exosomes purified from one well of donor cells). Recipient cells were cultured in the presence of donor cell exosomes for 60 hrs. EV-mediated transfer assay scheme is presented at the FIG. 5A (right).
HEK293T Tau RD P301S FRET biosensor cells were growing in the Dulbecco's Modified Eagle's medium (DMEM) with higher glucose, 10% FBS, and 1% Penicillin-streptomycin at 37° C./5% CO2. Cells were plated in 10-sm dishes (3 million cells per dish in the regular medium) and grown for 12 hrs. Cells assigned to be donors were transduced with pulled synaptosomal (P2) extracts from AD cases using lipofectamine 2000, according to the published literature with minor modifications. We used 35 μg of pulled AD or control (NL) material per one 10-sm dish (TableS1). Defrosted P2 extracts were sonicated in water bath sonicator for 10 minutes, and diluted with Opti-MEM serum reduced medium to the final volume 200 μL per 10-sm dish. In a separate tube lipofectamine 2000 were combined with Opti-MEM medium, based on 25 μl of lipofectamine and 175 μL OptiMEM medium per each 10-sm dish, and incubated for 10 minutes at room temperature (RT). Each P2 or NL extract mix (200 μl) and prepared lipofectamine 2000 mix (200 μl) were combined and incubated for 20 min at RT. Each 10-sm dish with cell received 400 μl of the final liposomes in the total volume of medium 5 ml per dish. Cultures treated with equal amount of empty liposomes were used as an additional control group. Cells were incubated with liposomes for 20 hrs.
For “D+R” assay recipient cells were labeled with 1,1′-Dioctadecyl-3,3,3′,3′-tetramethylindodicarbocyanine (DiD) according to manufacturer's protocol (ThermoFisher V22887) on day 2. On day 3, donor cells were trypsinized (0.05% Trypsin/EDTA), washed with fresh exosome-free medium contained 10% of exosome-depleted FBS (ThermoFisher, A2720803). DiD-labeled recipient cells were also trypsinized and washed in exosome-free medium. […] FRET signal was detected using LSRII flow cytometer (BD biosciences). […]

One may read the EC50 as the concentration needed to bring the measured effect to its halfway point. Turning to `O=c1[nH]c(=S)[nH]c(-c2ccccc2)c1Cc1c(O)ccc2ccccc12` [cambinol], the “tau seed transmission from donor cells to recipient cells” value in test [1] (D+R model, flow cytometry (FIG. 4C)) is on record as “restrained tau seed transmission from the donor cells to the recipient cells in a dose-dependent manner”. The EC50 in test [1] (Homo sapiens, HEK-293T, 48 h, 48-hour treatment, P2-seeded donor cells, FRET-positive aggregates in recipient cells, read-out: EC50, reduction of tau transfer from donor to recipient cells (D+R assay)) is about 14 µM. Besides, the “EV-mediated transfer of tau to recipient cells” value in test [2] (P2-seeded donor cells treated at 50 μM, 48 hours) is “decrease; also recorded: more effective than the nSMase2 inhibitor GW4869”. Besides, the “reduction of EV-mediated transfer of tau seeds to naive recipient cells” value in test [2] (inhibitor treatment of donor cells) came out at 8 times.
